Columns and labels:
Type in all cases: cell-based
[1] = biological target: Met (Homo sapiens (Human), UniProt P08581); assay: Met autophosphorylation ELISA in PC-3 cells; settings: cellular, HGF-stimulated, phospho-Met ELISA, read-out: c-Met IC50
Method: PC-3 prostate cancer cells (ATCC #CRL-1435) were seeded at 4×10^4 cells/well onto 24-well plates (Greiner #662165), in DMEM (Thermo Fisher #11995-040) containing 10% FBS (Thermo Fisher #26140-079), 1% MEM NEAA (Thermo Fisher #11140-050), 1% GlutaMax (Thermo Fisher #35050-061), and 1% Penicillin Streptomycin (Thermo Fisher #15140-122). PC-3 cells were incubated at 37° C., 5% CO2 for 24 h and then starved for 3 h in serum-free medium. Test compounds were serially diluted to produce an 8-point dose curve in fresh serum-free medium to a final concentration of 0.3% DMSO (vehicle) and added to the cells and incubated for 1 h. Cells were then stimulated with 100 ng/mL recombinant human HGF (R&D Systems #294-HG-250) for 10 min, washed with cold PBS, and immediately lysed with 130 μL of cold 1× lysis buffer [20 mM Tris, 137 mM sodium chloride, 2 mM EDTA, 10% glycerol, 1% NP-40 alternative, 1 mM activated sodium orthovanadate, 1 mM PefaBloc SC (Sigma-Aldrich #11429868001), and protease/phosphatase inhibitor tablet (Thermo Fisher #A32959)]. Lysates were clarified by centrifugation and 100 μL/well added into the PathScan phospho-Met (panTyr) Sandwich ELISA (Cell Signaling Technology #7333). Assay was performed according to manufacturer's instructions. Positive control wells (100% activity) contained HGF-stimulated, DMSO-treated cell lysates. Negative control wells (0% activity) contained HGF-stimulated, reference inhibitor-treated cell lysates. IC50 values were calculated by nonlinear regression analysis using a 4-parameter logistic curve fit in ActivityBase XE (IDBS).

[2] = biological target: KDR (Homo sapiens (Human), UniProt P35968); assay: KDR autophosphorylation ELISA in HUVEC cells; settings: cellular, VEGF165-stimulated, phospho-KDR ELISA
Method: Human umbilical vein endothelial cells or HUVEC (Lonza #C2519A) were seeded at 2×10^4 cells/well onto 96-well plates (Corning #3904), in EGM-2 growth medium (Lonza #CC-3162) containing 1% Penicillin Streptomycin (Thermo Fisher #15140-122). HUVEC cells were incubated at 37° C., 5% CO2 for 24 h and then starved for 24 h in serum-free EBM-2 basal medium (Lonza #CC-3156) containing 1% Penicillin Streptomycin. Test compounds were serially diluted to produce an 8-point dose curve in fresh serum-free medium to a final concentration of 0.3% DMSO (vehicle) and added to the cells and incubated for 1 h. Cells were then stimulated with 100 ng/mL recombinant human VEGF165 (R&D Systems #293-VE-500) for 5 min, washed with cold PBS, and immediately lysed with 130 μL of cold 1× lysis buffer [20 mM Tris, 137 mM sodium chloride, 2 mM EDTA, 10% glycerol, 1% NP-40 alternative, 1 mM activated sodium orthovanadate, 1 mM PefaBloc SC (Sigma-Aldrich #11429868001), protease/phosphatase inhibitor tablet (Thermo Fisher #A32959)]. Lysates were collected and 100 μL/well added into the human phospho-KDR DuoSet IC ELISA (R&D Systems #DYC1766-2). Assay was performed according to manufacturer's instructions and sample phospho-KDR concentrations were extrapolated using human phospho-KDR control (R&D Systems #841421) as a standard. Positive control wells (100% activity) contained VEGF165-stimulated, DMSO-treated cell lysates. Negative control wells (0% activity) contained non-stimulated cell lysates. IC50 values were calculated by nonlinear regression analysis using a 4-parameter logistic curve fit in ActivityBase XE (IDBS).

[3] = biological target: AXL (Homo sapiens (Human), UniProt P30530); assay: AXL autophosphorylation ELISA in A-172 cells; settings: cellular, Gas6-stimulated, phospho-AXL ELISA
Method: A-172 glioblastoma cells (ATCC #CRL-1620) were seeded at 2.5×10^5 cells/well onto 24-well plates (Greiner #662165), in […] (Thermo Fisher #11995-040) containing 10% FBS (Thermo Fisher #26140-079), […] (Thermo Fisher #11140-050), […] (Thermo Fisher #35050-061), and 1% Penicillin Streptomycin (Thermo Fisher #15140-122). A-172 cells were incubated at 37° C., […] for 24 hand then starved for 24 h in serum-free medium. Test compounds were serially diluted to produce an 8-point dose curve in fresh serum-free medium to a final concentration of 0.3% DMSO (vehicle) and added to the cells and incubated for 1 h. Cells were then stimulated with 1 μg/mL recombinant human Gas6 (R&D Systems #885-GSB-500) for 15 min, washed with cold PBS, and immediately lysed with 150 μL of cold 1× lysis buffer [20 mM Tris, 137 mM sodium chloride, 2 mM EDTA, 10% glycerol, 1% NP-40 alternative, 1 mM activated sodium orthovanadate, 1 mM PefaBloc SC (Sigma-Aldrich #11429868001), protease/phosphatase inhibitor tablet (Thermo Fisher #A32959)]. Lysates were collected and 100 μL/well added into the human phospho-AXL DuoSet IC ELISA (R&D Systems #DYC2228-2). Assay was performed according to manufacturer's instructions and sample phospho-AXL concentrations were extrapolated using human phospho-AXL control (R&D Systems #841645) as a standard. Positive control wells (100% activity) contained Gas6-stimulated, DMSO-treated cell lysates. Negative control wells (0% activity) contained Gas6-stimulated, reference inhibitor-treated cell lysates. IC50 values were calculated by nonlinear regression analysis using a 4-parameter logistic curve fit in ActivityBase XE (IDBS).

[4] = biological target: Mer (Homo sapiens (Human), UniProt Q12866); assay: Mer autophosphorylation ELISA in transient transfected 293A cells; settings: cellular, MERTK-transfected 293A cells, phospho-Mer ELISA
Method: 293A cells (Thermo Fisher #R70507) were seeded at 1.5×10^6 cells/well onto 100 mm dish (Greiner #664169), in DMEM (Thermo Fisher #11995-040) containing 10% FBS (Thermo Fisher #26140-079), 1% MEM NEAA (Thermo Fisher #11140-050), 1% GlutaMax (Thermo Fisher #35050-061), and 1% Penicillin Streptomycin (Thermo Fisher #15140-122). 293A cells were incubated at 37° C., 5% CO2 for 24 h and then transfected with 6 μg MERTK DNA (Genecopoeia #EX-Z8208-M02) using TransIT LT1 transfection reagent (Mirus-Bio #MIR2305). After 24 h incubation, the transfected 293A cells were seeded at 1×10^5 cells/well onto 96-well plates (Corning #3904) in DMEM growth medium overnight. Test compounds were serially diluted to produce an 8-point dose curve in fresh serum-free medium to a final concentration of 0.3% DMSO (vehicle) and added to the cells and incubated for 1 h. Cells were then immediately lysed with 150 μL of cold 1× lysis buffer [20 mM Tris, 137 mM sodium chloride, 2 mM EDTA, 10% glycerol, 1% NP-40 alternative, 1 mM activated sodium orthovanadate, 1 mM PefaBloc SC (Sigma-Aldrich #11429868001), protease/phosphatase inhibitor tablet (Thermo Fisher #A32959)]. Lysates were clarified by centrifugation and 50 μL/well added into the human phospho-Mer DuoSet IC ELISA (R&D Systems #DYC2579-2). Assay was performed according to manufacturer's instructions and sample phospho-Mer concentrations were extrapolated using human phospho-Mer control (R&D Systems #841793) as a standard. Positive control wells (100% activity) contained DMSO-treated cell lysates. Negative control wells (0% activity) contained reference inhibitor-treated cell lysates. IC50 values were calculated by nonlinear regression analysis using a 4-parameter logistic curve fit in ActivityBase XE (IDBS).

Chain of AXL (P30530 26-894): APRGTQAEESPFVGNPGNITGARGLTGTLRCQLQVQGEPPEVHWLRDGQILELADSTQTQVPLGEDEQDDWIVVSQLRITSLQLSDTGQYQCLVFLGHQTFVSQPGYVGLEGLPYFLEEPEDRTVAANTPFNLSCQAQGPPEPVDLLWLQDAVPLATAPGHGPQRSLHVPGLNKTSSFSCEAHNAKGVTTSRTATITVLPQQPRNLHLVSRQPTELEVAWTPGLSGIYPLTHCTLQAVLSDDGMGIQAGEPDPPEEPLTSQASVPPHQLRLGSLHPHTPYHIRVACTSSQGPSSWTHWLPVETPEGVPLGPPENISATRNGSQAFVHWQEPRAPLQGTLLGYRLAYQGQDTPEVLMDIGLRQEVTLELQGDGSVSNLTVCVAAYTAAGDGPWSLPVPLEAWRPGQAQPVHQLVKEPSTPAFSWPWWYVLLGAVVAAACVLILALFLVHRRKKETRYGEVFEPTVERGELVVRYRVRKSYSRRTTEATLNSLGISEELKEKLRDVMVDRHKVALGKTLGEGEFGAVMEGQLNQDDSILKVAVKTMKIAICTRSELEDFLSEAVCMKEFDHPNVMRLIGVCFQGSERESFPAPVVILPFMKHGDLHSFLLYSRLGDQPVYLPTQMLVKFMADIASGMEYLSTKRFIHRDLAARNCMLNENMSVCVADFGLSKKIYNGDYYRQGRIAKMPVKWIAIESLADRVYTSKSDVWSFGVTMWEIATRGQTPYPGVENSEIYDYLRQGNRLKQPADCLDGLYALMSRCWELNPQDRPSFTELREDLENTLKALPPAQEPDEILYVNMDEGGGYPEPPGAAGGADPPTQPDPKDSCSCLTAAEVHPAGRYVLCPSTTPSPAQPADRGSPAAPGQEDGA
Chain of Mer (Q12866 21-999): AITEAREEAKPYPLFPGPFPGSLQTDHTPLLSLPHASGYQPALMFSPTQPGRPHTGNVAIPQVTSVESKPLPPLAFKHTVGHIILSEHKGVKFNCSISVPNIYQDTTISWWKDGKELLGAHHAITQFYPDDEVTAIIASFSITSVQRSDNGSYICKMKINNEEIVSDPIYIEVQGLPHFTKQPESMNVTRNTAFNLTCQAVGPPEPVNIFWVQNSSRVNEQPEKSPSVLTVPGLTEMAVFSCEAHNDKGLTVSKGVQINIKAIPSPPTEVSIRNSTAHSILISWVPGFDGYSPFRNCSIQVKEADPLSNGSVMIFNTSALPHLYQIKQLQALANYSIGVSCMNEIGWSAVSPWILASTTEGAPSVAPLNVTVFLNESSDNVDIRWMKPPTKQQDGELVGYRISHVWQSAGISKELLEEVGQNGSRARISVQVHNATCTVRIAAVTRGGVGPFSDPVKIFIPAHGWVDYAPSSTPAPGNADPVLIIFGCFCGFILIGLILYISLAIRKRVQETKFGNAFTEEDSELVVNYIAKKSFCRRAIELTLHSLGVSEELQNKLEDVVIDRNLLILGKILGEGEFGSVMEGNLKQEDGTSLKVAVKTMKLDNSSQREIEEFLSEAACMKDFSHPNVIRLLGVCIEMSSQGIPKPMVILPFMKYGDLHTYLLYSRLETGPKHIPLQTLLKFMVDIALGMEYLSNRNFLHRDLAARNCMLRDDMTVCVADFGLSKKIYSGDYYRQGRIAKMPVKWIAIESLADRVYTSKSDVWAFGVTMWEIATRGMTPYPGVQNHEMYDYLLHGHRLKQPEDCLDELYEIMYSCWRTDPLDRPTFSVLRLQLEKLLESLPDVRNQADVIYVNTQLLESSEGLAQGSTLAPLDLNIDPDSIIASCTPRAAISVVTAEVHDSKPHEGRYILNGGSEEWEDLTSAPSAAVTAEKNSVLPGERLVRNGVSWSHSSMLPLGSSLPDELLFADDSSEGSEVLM
Chain of Met (P08581 25-1390): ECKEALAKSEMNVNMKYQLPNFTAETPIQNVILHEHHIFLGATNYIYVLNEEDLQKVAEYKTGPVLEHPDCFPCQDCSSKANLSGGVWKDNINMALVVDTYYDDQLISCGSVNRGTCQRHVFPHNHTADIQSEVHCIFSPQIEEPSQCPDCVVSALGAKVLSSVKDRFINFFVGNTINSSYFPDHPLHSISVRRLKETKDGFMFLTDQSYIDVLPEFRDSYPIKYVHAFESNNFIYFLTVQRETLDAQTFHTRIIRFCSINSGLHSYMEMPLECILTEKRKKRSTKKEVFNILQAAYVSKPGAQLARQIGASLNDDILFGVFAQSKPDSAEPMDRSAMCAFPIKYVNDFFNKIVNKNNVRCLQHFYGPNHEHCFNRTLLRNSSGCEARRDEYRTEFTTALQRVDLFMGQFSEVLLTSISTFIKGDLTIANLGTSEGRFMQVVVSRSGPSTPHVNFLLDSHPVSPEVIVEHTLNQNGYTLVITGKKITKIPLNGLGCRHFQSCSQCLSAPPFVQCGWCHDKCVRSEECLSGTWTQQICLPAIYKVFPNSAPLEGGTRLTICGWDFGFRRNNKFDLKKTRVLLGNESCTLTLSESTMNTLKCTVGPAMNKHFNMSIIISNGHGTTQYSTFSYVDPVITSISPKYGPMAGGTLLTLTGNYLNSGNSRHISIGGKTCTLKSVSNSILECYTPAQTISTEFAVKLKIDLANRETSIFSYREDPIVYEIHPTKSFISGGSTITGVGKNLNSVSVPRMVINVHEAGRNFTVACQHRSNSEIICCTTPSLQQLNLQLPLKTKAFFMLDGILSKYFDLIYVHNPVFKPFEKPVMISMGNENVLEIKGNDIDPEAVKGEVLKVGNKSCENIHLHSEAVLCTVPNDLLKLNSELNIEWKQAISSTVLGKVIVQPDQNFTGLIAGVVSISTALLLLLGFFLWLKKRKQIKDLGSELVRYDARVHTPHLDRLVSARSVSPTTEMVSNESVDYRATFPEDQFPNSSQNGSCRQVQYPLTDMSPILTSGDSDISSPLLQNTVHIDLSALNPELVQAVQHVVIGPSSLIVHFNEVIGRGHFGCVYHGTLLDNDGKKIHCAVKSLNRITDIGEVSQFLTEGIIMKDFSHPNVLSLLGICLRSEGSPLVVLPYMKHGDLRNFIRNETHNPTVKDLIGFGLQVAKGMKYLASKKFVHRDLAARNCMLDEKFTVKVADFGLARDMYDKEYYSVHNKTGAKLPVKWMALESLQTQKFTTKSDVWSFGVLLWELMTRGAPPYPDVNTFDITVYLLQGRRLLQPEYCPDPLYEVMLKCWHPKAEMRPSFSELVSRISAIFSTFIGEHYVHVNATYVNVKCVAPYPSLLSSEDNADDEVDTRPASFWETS
Chain of KDR (P35968 20-1356): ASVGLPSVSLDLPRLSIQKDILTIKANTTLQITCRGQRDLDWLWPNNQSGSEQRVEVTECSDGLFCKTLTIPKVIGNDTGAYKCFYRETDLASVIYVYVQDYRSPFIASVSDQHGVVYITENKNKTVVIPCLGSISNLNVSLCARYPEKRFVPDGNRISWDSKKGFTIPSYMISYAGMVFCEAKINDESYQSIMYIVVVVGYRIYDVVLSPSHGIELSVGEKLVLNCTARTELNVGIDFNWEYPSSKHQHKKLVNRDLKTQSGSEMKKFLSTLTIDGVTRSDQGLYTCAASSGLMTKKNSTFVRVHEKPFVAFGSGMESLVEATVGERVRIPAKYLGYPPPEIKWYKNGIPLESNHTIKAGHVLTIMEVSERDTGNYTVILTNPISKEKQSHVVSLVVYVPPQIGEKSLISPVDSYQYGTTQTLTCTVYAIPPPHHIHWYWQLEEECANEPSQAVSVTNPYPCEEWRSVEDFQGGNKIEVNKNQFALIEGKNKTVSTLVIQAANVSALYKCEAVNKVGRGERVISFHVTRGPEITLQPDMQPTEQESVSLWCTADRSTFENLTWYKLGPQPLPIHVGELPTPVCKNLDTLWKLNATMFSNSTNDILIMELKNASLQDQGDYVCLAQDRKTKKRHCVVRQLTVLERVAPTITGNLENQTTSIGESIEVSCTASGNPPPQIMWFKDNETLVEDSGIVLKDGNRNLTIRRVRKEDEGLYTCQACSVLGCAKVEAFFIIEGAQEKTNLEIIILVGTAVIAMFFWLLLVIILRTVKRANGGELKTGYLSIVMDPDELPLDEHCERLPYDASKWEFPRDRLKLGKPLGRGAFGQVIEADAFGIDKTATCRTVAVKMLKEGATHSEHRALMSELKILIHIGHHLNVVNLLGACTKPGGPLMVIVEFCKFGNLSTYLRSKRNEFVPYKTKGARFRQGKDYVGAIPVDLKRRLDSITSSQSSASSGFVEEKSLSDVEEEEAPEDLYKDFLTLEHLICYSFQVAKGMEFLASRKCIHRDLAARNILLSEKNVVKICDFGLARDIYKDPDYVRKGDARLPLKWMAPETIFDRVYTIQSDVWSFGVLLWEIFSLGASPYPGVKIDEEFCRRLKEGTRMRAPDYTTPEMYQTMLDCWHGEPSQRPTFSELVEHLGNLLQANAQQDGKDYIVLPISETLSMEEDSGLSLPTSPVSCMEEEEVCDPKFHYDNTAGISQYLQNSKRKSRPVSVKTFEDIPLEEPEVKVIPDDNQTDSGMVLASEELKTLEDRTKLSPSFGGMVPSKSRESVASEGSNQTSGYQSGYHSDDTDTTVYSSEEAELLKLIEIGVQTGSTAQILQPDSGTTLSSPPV

Work on `CCNC(=O)c1cc2c(Oc3ncc(NC(=O)C4(C(=O)Nc5ccc(F)cc5)CC4)cc3F)ccnc2cc1OC` [Compound 23, 1-N′-[6-[6-(Ethylcarbamoyl)-7-methoxyquinolin-4-yl]oxy-5-fluoropyridin-3-yl]-1-N-(4-fluorophenyl)cyclopropane-1,1-dicarboxamide] yielded an IC50 [1] of 10 to 100 nM, an IC50 [2] greater than 300 nM and an IC50 [3] of 10 to 100 nM. For the same compound, the IC50 [4] was 10 to 100 nM.
Compound `CNC(=O)c1cc2c(Oc3ncc(NC(=O)C4(C(=O)Nc5ccc(F)cc5)CC4)cc3Cl)ccnc2cc1OCCO` [Compound 37, 1-N′-[5-Chloro-6-[7-(2-hydroxyethoxy)-6-(methylcarbamoyl)quinolin-4-yl]oxypyridin-3-yl]-1-N-(4-fluorophenyl)cyclopropane-1,1-dicarboxamide] has an IC50 [1] of 10 to 100 nM, an IC50 [2] greater than 300 nM and an IC50 [3] of 10 to 100 nM. For the same compound, the IC50 [4] was 100 to 300 nM.
`NC(=O)c1cc2c(Oc3ncc(NC(=O)C4(C(=O)Nc5ccc(F)cc5)CC4)cc3Cl)ccnc2cc1OCCO` [Compound 38, 1-N′-[6-[6-Carbamoyl-7-(2-hydroxyethoxy)quinolin-4-yl]oxy-5-chloropyridin-3-yl]-1-N-(4-fluorophenyl)cyclopropane-1,1-dicarboxamide] showed an IC50 [1] of 10 to 100 nM, an IC50 [2] greater than 300 nM and an IC50 [3] of 10 to 100 nM. It also gave an IC50 [4] of 10 to 100 nM.
`NC(=O)c1cc2c(Oc3ncc(NC(=O)C4(C(=O)Nc5ccc(F)cc5)CC4)cc3F)ccnc2cc1OCCO` [Compound 39, 1-N′-[6-[6-Carbamoyl-7-(2-hydroxyethoxy)quinolin-4-yl]oxy-5-fluoropyridin-3-yl]-1-N-(4-fluorophenyl)cyclopropane-1,1-dicarboxamide] was tested, and the IC50 [1] was 10 to 100 nM, the IC50 [2] was greater than 300 nM and the IC50 [3] was 10 to 100 nM. It also gave an IC50 [4] of 100 to 300 nM.
`CNC(=O)c1cc2c(Oc3ncc(NC(=O)C4(C(=O)Nc5ccc(F)cc5)CC4)cc3Cl)ccnc2cc1OCC(C)O` (centres unmarked) [Compound 50, 1-N′-[5-Chloro-6-[7-(2-hydroxypropoxy)-6-(methylcarbamoyl)-quinolin-4-yl]oxypyridin-3-yl]-1-N-(4-fluorophenyl)cyclopropane-1,1-dicarboxamide] showed an IC50 [1] of 10 to 100 nM, an IC50 [2] greater than 300 nM and an IC50 [3] of 10 to 100 nM. For the same compound, the IC50 [4] was 10 to 100 nM.
Work on `CC(O)COc1cc2nccc(Oc3ncc(NC(=O)C4(C(=O)Nc5ccc(F)cc5)CC4)cc3Cl)c2cc1C(N)=O` (centres unmarked) [Compound 51, 1-N′-[6-[6-Carbamoyl-7-(2-hydroxypropoxy)quinolin-4-yl]oxy-5-chloropyridin-3-yl]-1-N-(4-fluorophenyl)cyclopropane-1,1-dicarboxamide] yielded an IC50 [1] of 10 to 100 nM, an IC50 [2] greater than 300 nM and an IC50 [3] of 10 to 100 nM. It also gave an IC50 [4] of 10 to 100 nM.
In the case of `COc1cc2nccc(Oc3ncc(NC(=O)C4(C(=O)Nc5ccc(F)cc5)CC4)cc3Cl)c2cc1-c1ncco1` [Compound 64, 1-N′-[5-Chloro-6-[7-methoxy-6-(1,3-oxazol-2-yl)quinolin-4-yl]oxypyridin-3-yl]-1-N-(4-fluorophenyl)cyclopropane-1,1-dicarboxamide], the IC50 [1] is reported as 10 to 100 nM, the IC50 [2] is reported as greater than 300 nM and the IC50 [3] is reported as no more than 10 nM. For the same compound, the IC50 [4] was 10 to 100 nM.
With `COc1cc2nccc(Oc3ncc(NC(=O)C4(C(=O)Nc5ccc(F)cc5)CC4)cc3F)c2cc1-c1nnco1` [Compound 67, 1-N′-[5-Fluoro-6-[7-methoxy-6-(1,3,4-oxadiazol-2-yl)quinolin-4-yl]oxypyridin-3-yl]-1-N-(4-fluorophenyl)cyclopropane-1,1-dicarboxamide] the IC50 [1] was 10 to 100 nM, the IC50 [2] was greater than 300 nM and the IC50 [3] was 10 to 100 nM. It also gave an IC50 [4] of 10 to 100 nM.
`COc1cc2nccc(Oc3ncc(NC(=O)C4(C(=O)Nc5ccc(F)cc5)CC4)cc3Cl)c2cc1-c1nnco1` [Compound 68, 1-N′-[5-Chloro-6-[7-methoxy-6-(1,3,4-oxadiazol-2-yl)quinolin-4-yl]oxypyridin-3-yl]-1-N-(4-fluorophenyl)cyclopropane-1,1-dicarboxamide] was tested, and the IC50 [1] was 10 to 100 nM, the IC50 [2] was greater than 300 nM and the IC50 [3] was 10 to 100 nM. For the same compound, the IC50 [4] was 10 to 100 nM.
For `COc1cc2nccc(Oc3ncc(NC(=O)C4(C(=O)Nc5ccc(F)cc5)CC4)cc3Cl)c2cc1-c1ncc[nH]1` [Compound 71, 1-N′-[5-Chloro-6-[6-(1H-imidazol-2-yl)-7-methoxyquinolin-4-yl]oxypyridin-3-yl]-1-N-(4-fluorophenyl)cyclopropane-1,1-dicarboxamide], the IC50 [1] was 10 to 100 nM, the IC50 [2] was greater than 300 nM and the IC50 [3] was 10 to 100 nM. The IC50 [4] was 10 to 100 nM.
`COc1cc2nccc(Oc3ncc(NC(=O)C4(C(=O)Nc5ccc(F)cc5)CC4)cc3F)c2cc1-c1ncc[nH]1` [Compound 72, 1-N′-[5-Fluoro-6-[6-(1H-imidazol-2-yl)-7-methoxyquinolin-4-yl]oxypyridin-3-yl]-1-N-(4-fluorophenyl)cyclopropane-1,1-dicarboxamide] was tested, and the IC50 [1] was 10 to 100 nM, the IC50 [2] was greater than 300 nM and the IC50 [3] was no more than 10 nM. It also gave an IC50 [4] of 10 to 100 nM.

Reference: US11673897B2, “Compounds for the treatment of kinase-dependent disorders” (Exelixis, Inc., priority 2018, dated 2023)
